From ChEMBL document CHEMBL1201862, “PubChem BioAssay data set” (2004)
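Each compound was tested at five concentrations against cells in 96-well plates for 48 hours. Abbreviation: GI50, concentration required for 50% inhibition of growth.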 The source made the active and inactive calls. Rule as the data show it: active = GI50 up to about 1.1 µM and inactive = higher.

How the values were obtained:
Assay in all cases: DTP human tumour cell line panel, 48 h
HOP-62 = test system: HOP-62
HCT-15 = test system: HCT-15
NCI/ADR-RES = test system: NCI/ADR-RES
K562 = test system: K562
TK-10 = test system: TK-10
MDA-N = test system: MDA-N
HCC 2998 = test system: HCC 2998
CAKI-1 = test system: CAKI-1
MCF7 = test system: MCF7
BT-549 = test system: BT-549
SF-295 = test system: SF-295
UO-31 = test system: UO-31
T47D = test system: T47D
SK-OV-3 = test system: SK-OV-3
SNB-19 = test system: SNB-19
786-0 = test system: 786-0
ACHN = test system: ACHN
RXF 393 = test system: RXF 393
COLO 205 = test system: COLO 205
LOX IMVI = test system: LOX IMVI
IGROV-1 = test system: IGROV-1
SNB-75 = test system: SNB-75
EKVX = test system: EKVX
HT-29 = test system: HT-29
UACC-257 = test system: UACC-257
DU-145 = test system: DU-145
NCI-H23 = test system: NCI-H23
SW-620 = test system: SW-620
Malme-3M = test system: Malme-3M
HCT-116 = test system: HCT-116
SN12C = test system: SN12C
NCI-H460 = test system: NCI-H460
KM12 = test system: KM12
SF-268 = test system: SF-268
OVCAR-5 = test system: OVCAR-5
RPMI-8226 = test system: RPMI-8226
OVCAR-8 = test system: OVCAR-8
SF-539 = test system: SF-539
A498 = test system: A498
A549 = test system: A549
NCI-H522 = test system: NCI-H522
MOLT-4 = test system: MOLT-4
OVCAR-3 = test system: OVCAR-3
U-251 = test system: U-251
SK-MEL-2 = test system: SK-MEL-2
SK-MEL-5 = test system: SK-MEL-5
NCI-H226 = test system: NCI-H226
HL-60 = test system: HL-60
PC-3 = test system: PC-3
M14 = test system: M14
HOP-92 = test system: HOP-92
SK-MEL-28 = test system: SK-MEL-28
SR = test system: SR
Hs-578T = test system: Hs-578T
CCRF-CEM = test system: CCRF-CEM
OVCAR-4 = test system: OVCAR-4

## CN(C)NC1=NS(=O)(=O)c2cc3c(=O)n(C)[nH]c3cc2S1
HOP-62
  GI50: > 10 µM (inactive)
HCT-15
  GI50: > 10 µM
NCI/ADR-RES
  GI50: > 10 µM (inactive)
K562
  GI50: > 10 µM (inactive)
TK-10
  GI50: > 10 µM (inactive)
MDA-N
  GI50: > 10 µM (inactive)
HCC 2998
  GI50: > 10 µM (inactive)
CAKI-1
  GI50: > 10 µM (inactive)
MCF7
  GI50: 5.05 µM (inactive)
BT-549
  GI50: > 10 µM (inactive)
SF-295
  GI50: > 10 µM (inactive)
UO-31
  GI50: > 10 µM (inactive)
T47D
  GI50: > 10 µM (inactive)
SK-OV-3
  GI50: > 10 µM (inactive)
SNB-19
  GI50: > 10 µM (inactive)
786-0
  GI50: > 10 µM (inactive)
ACHN
  GI50: > 10 µM (inactive)
RXF 393
  GI50: > 10 µM (inactive)
COLO 205
  GI50: > 10 µM (inactive)
LOX IMVI
  GI50: > 10 µM (inactive)
IGROV-1
  GI50: > 10 µM (inactive)
SNB-75
  GI50: > 10 µM (inactive)
EKVX
  GI50: > 10 µM (inactive)
HT-29
  GI50: > 10 µM (inactive)
UACC-257
  GI50: > 10 µM (inactive)
DU-145
  GI50: > 10 µM (inactive)
NCI-H23
  GI50: > 10 µM (inactive)
SW-620
  GI50: > 10 µM (inactive)
Malme-3M
  GI50: > 10 µM (inactive)
HCT-116
  GI50: > 10 µM (inactive)
SN12C
  GI50: > 10 µM (inactive)
NCI-H460
  GI50: > 10 µM (inactive)
KM12
  GI50: > 10 µM (inactive)
SF-268
  GI50: > 10 µM (inactive)
OVCAR-5
  GI50: > 10 µM (inactive)
RPMI-8226
  GI50: > 10 µM (inactive)
OVCAR-8
  GI50: > 10 µM (inactive)
SF-539
  GI50: > 10 µM (inactive)
A498
  GI50: > 10 µM (inactive)
A549
  GI50: > 10 µM (inactive)
NCI-H522
  GI50: > 10 µM (inactive)
MOLT-4
  GI50: > 10 µM (inactive)
OVCAR-3
  GI50: > 10 µM (inactive)
U-251
  GI50: > 10 µM (inactive)
SK-MEL-2
  GI50: > 10 µM (inactive)
SK-MEL-5
  GI50: > 10 µM (inactive)
NCI-H226
  GI50: > 10 µM (inactive)
HL-60
  GI50: > 10 µM (inactive)
PC-3
  GI50: > 10 µM (inactive)
M14
  GI50: > 10 µM (inactive)
HOP-92
  GI50: > 10 µM (inactive)
SK-MEL-28
  GI50: > 10 µM (inactive)
SR
  GI50: > 10 µM (inactive)
Hs-578T
  GI50: > 10 µM (inactive)
CCRF-CEM
  GI50: > 10 µM (inactive)
OVCAR-4
  GI50: > 10 µM (inactive)
